Data reported in publication PMC11357054, “Azobenzenesulfonamide Carbonic Anhydrase Inhibitors as New Weapons to Fight Helicobacter pylori: Synthesis, Bioactivity Evaluation, In Vivo Toxicity, and Computational Studies” (Pharmaceuticals, 2024).
Values after ≈ are worked out from the molar mass of the structure shown. Where two headings read alike, the source gives them in different places.

Columns and labels:
hCA XII [1] = target: T1, hCA XII (Homo sapiens, UniProt O43570); experiment: stopped-flow CO2 hydration; format: biochemical; settings: read-out: KI (nM) * / Human Isoforms / hCA XII
T1 construct: gene CA12
Excerpt: stopped-flow CO2 hydration on hCA XII

PsCA3 [2] = target: T2, PsCA3 (Pseudomonas aeruginosa, UniProt Q9HVB9); experiment: stopped-flow CO2 hydration; format: biochemical; settings: read-out: KI (nM) * / Bacterial Isoforms / Ps CA3
T2 construct: gene PA4676; recombinant, obtained in-house
T2 sequence (Q9HVB9 1-215): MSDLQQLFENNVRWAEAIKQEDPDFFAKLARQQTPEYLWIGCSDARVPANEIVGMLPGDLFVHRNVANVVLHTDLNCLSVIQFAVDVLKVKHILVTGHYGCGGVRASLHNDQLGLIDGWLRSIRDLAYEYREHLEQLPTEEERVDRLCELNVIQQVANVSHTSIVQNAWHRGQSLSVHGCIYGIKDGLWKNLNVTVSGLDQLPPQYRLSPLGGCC

HpβCA = target: T3, HpβCA (Helicobacter pylori, UniProt Q9ZN54); experiment: stopped-flow CO2 hydration; format: biochemical; settings: read-out: KI (nM) * / Bacterial Isoforms / Hp βCA
T3 construct: gene cynT; recombinant, obtained in-house
T3 sequence (Q9ZN54 1-221): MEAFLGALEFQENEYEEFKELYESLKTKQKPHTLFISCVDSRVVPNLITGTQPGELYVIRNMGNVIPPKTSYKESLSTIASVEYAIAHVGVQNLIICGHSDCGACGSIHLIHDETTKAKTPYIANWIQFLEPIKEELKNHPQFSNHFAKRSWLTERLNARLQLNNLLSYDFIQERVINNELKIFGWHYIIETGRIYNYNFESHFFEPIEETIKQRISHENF

hCA IX [3] = target: T4, hCA IX (Homo sapiens, UniProt Q16790); experiment: stopped-flow CO2 hydration; format: biochemical; settings: read-out: KI (nM) * / Human Isoforms / hCA IX
T4 construct: gene CA9
Excerpt: stopped-flow CO2 hydration on hCA IX

hCA I [4] = target: T5, hCA I (Homo sapiens, UniProt P00915); experiment: stopped-flow CO2 hydration; format: biochemical; settings: read-out: KI (nM) * / Human Isoforms / hCA I
T5 construct: gene CA1; purchased from Merck
Excerpt: stopped-flow CO2 hydration on hCA I

HpαCA = target: T6, HpαCA (Helicobacter pylori, UniProt B5Z8I0); experiment: stopped-flow CO2 hydration; format: biochemical
T6 construct: gene HPG27_1129; recombinant, obtained in-house; PDB 4XFW is given for docking only
T6 sequence (B5Z8I0 22-247): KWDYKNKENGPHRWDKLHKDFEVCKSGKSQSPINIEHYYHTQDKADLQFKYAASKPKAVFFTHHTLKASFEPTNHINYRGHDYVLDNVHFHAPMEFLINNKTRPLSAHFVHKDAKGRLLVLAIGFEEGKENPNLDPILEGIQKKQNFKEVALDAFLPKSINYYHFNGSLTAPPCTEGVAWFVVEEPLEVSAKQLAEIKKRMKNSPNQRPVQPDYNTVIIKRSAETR

PgiγCA = target: T7, PgiγCA; experiment: stopped-flow CO2 hydration; format: biochemical, Porphyromonas gingivalis; settings: pH […] HEPES, […] Na2SO4, […] min preincubation, r.t.; read-out: KI (nM) * / Bacterial Isoforms / Pgi γCA
T7 construct: gene PgiCA; recombinant, obtained in-house

EcoβCA [5] = target: T8, EcoβCA (Escherichia coli, UniProt P61517); experiment: stopped-flow CO2 hydration; format: biochemical; settings: read-out: KI (nM) * / Bacterial Isoforms / Eco βCA
T8 construct: gene can; recombinant, obtained in-house

H. pylori ATCC 43504 = test system: T9, H. pylori ATCC 43504; experiment: microbe, parasite or virus in culture; set-up: species or system Helicobacter pylori ATCC 43504; MIC by broth microdilution, alamarBlue and CFU count; MBC by CFU count; settings: Helicobacter pylori, ATCC43504
T9 construct: ATCC 43504
Method: H. pylori ATCC 43504 was cultured on a Columbia Agar base (Becton Dickinson and Company, Franklin Lakes, NJ, USA) supplemented with 10% horse serum (Merck, St. Louis, MO, USA) and 0.25% yeast extract (Oxoid Ltd., Hampshire, UK), incubated at 37 °C for 72 h in a microaerophilic atmosphere (CampyGen, Thermo Fisher Scientific, Milan, Italy). Colonies were collected and transferred into 10 mL of Brain Heart Infusion broth (BHI, Oxoid Ltd., Hampshire, UK) supplemented with 5% (v/v) of fetal bovine serum (FBS, Merck, Milan, Italy) and incubated overnight at 37 °C, at 125 rpm under microaerophilic conditions. After 18 h of incubation, the broth culture was diluted to obtain a bacterial suspension of 10^6 CFU/mL. MICs were determined by three different assays: the broth micro-dilution method, the alamarBlue assay, and the CFU count. […] This bacterium was selected based on the inhibitory potency evidenced by the two series of azobenzenesulfonamides against the HpCAs.

hCA II = target: T10, hCA II (Homo sapiens, UniProt P00918); experiment: stopped-flow CO2 hydration; format: biochemical; settings: read-out: KI (nM) * / Human Isoforms / hCA II
T10 construct: gene CA2; purchased from Merck
Excerpt: stopped-flow CO2 hydration on hCA II

PgiβCA = target: T11, PgiβCA; experiment: stopped-flow CO2 hydration; format: biochemical, Porphyromonas gingivalis; settings: pH […] HEPES, […] Na2SO4, […] min preincubation, r.t.; read-out: KI (nM) * / Bacterial Isoforms / Pgi βCA
T11 construct: gene PgiCAb; recombinant, obtained in-house

hCA IX [6] = target: T4, hCA IX; experiment: biochemical; settings: read-out: Human Isoforms / hCA IX
Method: (§1) An Applied Photophysics stopped-flow instrument was used to evaluate the ability of the test compounds to inhibit CA-catalyzed CO2 hydration. […] The CO2 concentrations ranged from 1.7 to 17 mM for the determination of the kinetic parameters and inhibition constants. Enzyme concentrations spanned from 5 to 12 nM. Stock solutions of the inhibitor (0.1 mM) were prepared in distilled–deionized water, and dilutions up to 0.01 nM were prepared with the assay buffer. Inhibitor and enzyme solutions were preincubated for 15 min at r.t. for the formation of the E–I complex. The inhibition constants were obtained by non-linear least-squares methods using PRISM 3 and the Cheng–Prusoff equation and represent the mean from at least three different determinations. Apart from human CAs I and II purchased from Merck, all the bacterial CAs were recombinant and obtained in-house. Compounds 4a–j and 5a–j were tested on a large panel of human and bacterial isoenzymes belonging to different CA families, evaluating their inhibitory activity through the CO2 hydration activity assay by means of the stopped-flow technique, and the inhibitory constants (KIs) are reported in Table 1 and Table 2, respectively. In particular, we tested the hypoxic tumor-associated hCAs IX and XII, and bacterial isoforms involved in several infectious diseases, such as those caused by H. pylori (HpαCA and HpβCA), Porphyromonas gingivalis (PgiβCA and PgiγCA), Escherichia coli (EcoβCA), Pseudomonas aeruginosa (PsCA3, belonging to the β-class), Mammaliicoccus (Staphylococcus) sciuri (MscCA, belonging to the β-class), and Streptococcus mutans (SmuCA, belonging to the β-class). The inhibition of human physiologically relevant isoforms I and II was also investigated in order to assess the compounds’ selectivity. Our main aim was to rationalize the structural requirements of sulfonamide-containing compounds useful for targeting HpCAs, in order to gain a larger knowledge for further optimization studies focusing on isoform selectivity. In fact, although the tested human and bacterial isoforms present a low degree of sequence similarity, they catalyze the same reaction and contain the catalytically active zinc ion in the active site. Thus, a comparison of the data obtained from different members of this large superfamily has a high relevance in the field. By observing Table 1 and Table 2, interesting structure–activity relationship (SAR) considerations can be inferred.

hCA XII [7] = target: T1, hCA XII; experiment: biochemical; settings: read-out: Human Isoforms / hCA XII
Method: as §1

PsCA3 [8] = target: T2, PsCA3; experiment: biochemical; settings: read-out: Bacterial Isoforms / Ps CA3
Method: as §1

hCA I [9] = target: T5, hCA I; experiment: biochemical; settings: read-out: Human Isoforms / hCA I
Method: as §1

EcoβCA [10] = target: T8, EcoβCA; experiment: biochemical; settings: read-out: Bacterial Isoforms / Eco βCA
Method: as §1

[11] = read-out: KI (nM) * / Bacterial Isoforms / Hp αCA

T1 sequence (O43570 30-289 limits assumed): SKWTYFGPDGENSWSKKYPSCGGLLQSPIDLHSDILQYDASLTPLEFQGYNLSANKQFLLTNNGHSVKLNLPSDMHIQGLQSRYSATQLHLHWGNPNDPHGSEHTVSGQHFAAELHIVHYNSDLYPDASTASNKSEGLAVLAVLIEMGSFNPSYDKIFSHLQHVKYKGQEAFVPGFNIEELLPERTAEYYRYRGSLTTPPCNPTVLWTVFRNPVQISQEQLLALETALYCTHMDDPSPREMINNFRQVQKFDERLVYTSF
T5 sequence (P00915 2-261): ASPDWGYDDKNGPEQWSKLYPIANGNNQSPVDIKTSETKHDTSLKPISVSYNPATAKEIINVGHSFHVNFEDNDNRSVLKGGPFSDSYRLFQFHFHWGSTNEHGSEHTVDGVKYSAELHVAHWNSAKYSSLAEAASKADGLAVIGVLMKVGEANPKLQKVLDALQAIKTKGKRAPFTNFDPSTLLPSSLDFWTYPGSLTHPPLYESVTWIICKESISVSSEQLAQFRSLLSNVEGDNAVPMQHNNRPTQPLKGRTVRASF
T8 sequence (P61517 whole entry, canonical isoform): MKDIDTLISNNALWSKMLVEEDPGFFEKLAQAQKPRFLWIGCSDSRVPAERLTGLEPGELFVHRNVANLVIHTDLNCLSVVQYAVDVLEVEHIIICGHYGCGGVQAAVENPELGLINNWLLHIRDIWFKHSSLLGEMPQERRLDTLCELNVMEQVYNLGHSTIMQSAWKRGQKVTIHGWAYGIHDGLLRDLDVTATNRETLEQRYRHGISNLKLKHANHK

SMILES	Ki (hCA XII [1]) [nM]	Ki (PsCA3 [2]) [nM]	Ki (HpβCA) [nM]	Ki (hCA IX [3]) [nM]	Ki (hCA I [4]) [nM]	Ki (HpαCA; [11]) [nM]	Ki (PgiγCA) [nM]	Ki (EcoβCA [5]) [nM]	MBC (H. pylori ATCC 43504) [µg/mL]	MIC (H. pylori ATCC 43504) [µg/mL]	Ki (hCA II) [nM]	Ki (PgiβCA) [nM]	Ki (hCA IX [6]) [nM]	Ki (hCA XII [7]) [nM]	Ki (PsCA3 [8]) [nM]	Ki (hCA I [9]) [nM]	Ki (EcoβCA [10]) [nM]	Ki (HpαCA; read-out: KI (nM) / Bacterial Isoforms / Hp αCA) [nM]
Cc1cc(/N=N/c2ccc(S(N)(=O)=O)cc2)ccc1O [4i, (E)-4-((4-hydroxy-3-methylphenyl)diazenyl)benzenesulfonamide]	7.5	114	119	181	4.4	140	6330	2110	64 (≈ 220 µM)	32 (≈ 110 µM)	3.4	2070						
Cc1ccc(O)c(/N=N/c2ccc(S(N)(=O)=O)cc2)c1 [4h, (E)-4-((2-hydroxy-5-methylphenyl)diazenyl)benzenesulfonamide]	9.6	980	127	184	68.4	130	772	360	64 (≈ 220 µM)	32 (≈ 110 µM)	6.6	3850						
CS(=O)(=O)Nc1ccc(N=Nc2ccccc2)cc1 [5i]									32 (≈ 116 µM)	16 (≈ 58.1 µM)			599	2240	9280	5990	6950	89.8
COc1ccc(O)c(/N=N/c2ccc(S(N)(=O)=O)cc2)c1 [4a, (E)-4-((2-hydroxy-5-methoxyphenyl)diazenyl)benzenesulfonamide]	9.5	228	74.1	201	45	65.8	3440	400	32 (≈ 104 µM)	8 (≈ 26 µM)	24.1	803						
Cc1cc(O)ccc1/N=N/c1ccc(S(N)(=O)=O)cc1 [4j, (E)-4-((4-hydroxy-2-methylphenyl)diazenyl)benzenesulfonamide]	84.1	1840	138	213	5.3	72.2	914	3040	32 (≈ 110 µM)	16 (≈ 54.9 µM)	4.7	5780						
NS(=O)(=O)c1ccc(/N=N/c2ccc(O)c(C(F)(F)F)c2)cc1 [4d, (E)-4-((4-hydroxy-3-(trifluoromethyl)phenyl)diazenyl)benzenesulfonamide]	40.2	222	19.4	182	20.1	39	94.7	738	128 (≈ 371 µM)	64 (≈ 185 µM)	4.8	3170						
Cc1cc(O)cc(C)c1/N=N/c1ccc(S(N)(=O)=O)cc1 [4g, (E)-4-((4-hydroxy-2,6-dimethylphenyl)diazenyl)benzenesulfonamide]	63.9	879	74.3	171	4.9	142	939	550	32 (≈ 105 µM)	16 (≈ 52.4 µM)	3.7	3670						
NS(=O)(=O)c1ccc(/N=N/c2ccc(O)cc2C(F)(F)F)cc1 [4e, (E)-4-((4-hydroxy-2-(trifluoromethyl)phenyl)diazenyl)benzenesulfonamide]	54.1	495	68.8	191	5.4	89.2	347	95.3	16 (≈ 46.3 µM)	8 (≈ 23.2 µM)	4.2	899						
Cc1cc(/N=N/c2ccc(S(N)(=O)=O)cc2)c(C)cc1O [4f, (E)-4-((4-hydroxy-2,5-dimethylphenyl)diazenyl)benzenesulfonamide]	56.7	191	70.6	97.1	5.7	69.4	472	867	32 (≈ 105 µM)	32 (≈ 105 µM)	1.9	3760						
CC1(C)S[C@@H]2[C@H](NC(=O)[C@H](N)c3ccc(O)cc3)C(=O)N2[C@H]1C(=O)O [Amoxicillin]									0.064 (≈ 0.175 µM)	0.064 (≈ 0.175 µM)								
